This is an account of results in patent publication US8158656B2, “2-indolinone derivatives as multi-target protein kinase inhibitors and histone deacetylase inhibitors” (Shenzhen Chipscreen Biosciences Ltd., priority 2008, dated 2012).

One assay concerns Ramos. Description: Tumor cell proliferation (MTS), Ramos. The conditions noted are these: Homo sapiens, 72 hours. The class given is cell-based. The protocol: (§1) Measurement of in vivo cell proliferation:
(§2) Tumor cells were trypsinized and plated into 96-well plates at 3,000 per well and incubated in complete medium with 10% FBS for 24 hours. Compounds were added over a final concentration range of 100 μmol/L to 100 nmol/L in 0.1% DMSO and incubated for 72 hours in complete medium. The effects on proliferation were determined by addition of MTS reagent (Promega) according to the instruction, incubation for 2 hours at 37° C. in CO2 incubator, and record the absorbance at 490 nm using an ELISA plate reader.

A further assay deals with Bel-7402. Kind of assay: Tumor cell proliferation (MTS), Bel-7402. The class given is cell-based. The conditions noted are these: Homo sapiens, Bel-7402, 72 hours. The protocol: as §1, §2
In a further assay the test system is U937. Kind of assay: Tumor cell proliferation (MTS), U937. The class given is cell-based. The settings on record: Homo sapiens, U-937, U937, 72 hours. The protocol:
as §1, §2

The next assay relates to A549. Kind of assay: Tumor cell proliferation (MTS), A549. The class given is cell-based. The conditions noted are these: Homo sapiens, A549, 72 hours. The protocol:
as §1, §2

A further assay deals with Jurkat. Description: Tumor cell proliferation (MTS), Jurkat. The class given is cell-based. The conditions noted are these: Homo sapiens, 72 hours. The protocol: as §1, §2
A further assay concerns MCF7. Description: Tumor cell proliferation (MTS), MCF7. The class given is cell-based. The settings on record: Homo sapiens, MCF7, 72 hours. The protocol:
as §1, §2

The next assay has as its system Raji. Kind of assay: Tumor cell proliferation (MTS), Raji. The class given is cell-based. The settings on record: Homo sapiens, 72 hours. The protocol: as §1, §2
The test system of the next assay is Hut-78. Description: Tumor cell proliferation (MTS), Hut-78. The class given is cell-based. The conditions noted are these: Homo sapiens, HuT78, Hut-78, 72 hours. As to the method: as §1, §2
The subject of the next assay is HeLa. Description: Tumor cell proliferation (MTS), HeLa. The class given is cell-based. The settings on record: Homo sapiens, 72 hours. As to the method: as §1, §2
A further assay concerns HCT-8. Description: Tumor cell proliferation (MTS), HCT-8. The settings on record: Homo sapiens, HCT-8, 72 hours. The class given is cell-based. The protocol: as §1, §2
The next assay deals with MDA-MB-231. Kind of assay: Tumor cell proliferation (MTS), MDA-MB-231. The class given is cell-based. The settings on record: Homo sapiens, MDA-MB-231, 72 hours. The protocol: as §1, §2
In a further assay the test system is HL60. Description: Tumor cell proliferation (MTS), HL60. The class given is cell-based. The settings on record: Homo sapiens, HL-60, HL60, 72 hours. As to the method: as §1, §2
The next assay concerns the target T1, HDAC3 (Homo sapiens, UniProt O15379).
T1 construct: endogenous in cells; host or cells: HeLa
Kind of assay: GDF11 reporter assay in HeLa cells. The conditions noted are these: relative to CS055 at 3 μM. The class given is cell-based. As to the method: (§3) HDAC subtype selectivity inhibition assay of tested compounds was carried out by several reporter gene assays experiments. Briefly, HeLa cells were seeded in 96-well plates the day before transfection to give a confluence of 50-80%. Cells were transfected with one of reporter gene plasmid containing a promoter sequence or response element upstream of a luciferase gene construct using FuGene6 transfection reagent according to the manufacturer's instruction (Roche). The promoters or response elements including p21-promoter, gdf11-promoter, MEF-binding element (MEF2), Nur77-promoter were fused upstream to the luciferase gene reporter construct. For normalizing the transfection efficiency, a GFP expression plasmid was cotransfected. Cells were allowed to express protein for 24 hours followed by addition of individual compounds or the vehicle (DMSO). 24 hours later the cells were harvested, and the luciferase assay and GFP assay were performed using corresponding assay kits according to the manufacturer's instructions (Promega).

Another assay relates to Class I HDAC. Kind of assay: P21 reporter assay in HeLa cells. The class given is cell-based, human. The settings on record: relative to CS055 at 3 μM. The protocol: as §3
The target of another assay is T2, HDAC7 (Homo sapiens, UniProt Q8WUI4).
T2 construct: endogenous in cells; host or cells: HeLa
T2 sequence (Q8WUI4 1-952): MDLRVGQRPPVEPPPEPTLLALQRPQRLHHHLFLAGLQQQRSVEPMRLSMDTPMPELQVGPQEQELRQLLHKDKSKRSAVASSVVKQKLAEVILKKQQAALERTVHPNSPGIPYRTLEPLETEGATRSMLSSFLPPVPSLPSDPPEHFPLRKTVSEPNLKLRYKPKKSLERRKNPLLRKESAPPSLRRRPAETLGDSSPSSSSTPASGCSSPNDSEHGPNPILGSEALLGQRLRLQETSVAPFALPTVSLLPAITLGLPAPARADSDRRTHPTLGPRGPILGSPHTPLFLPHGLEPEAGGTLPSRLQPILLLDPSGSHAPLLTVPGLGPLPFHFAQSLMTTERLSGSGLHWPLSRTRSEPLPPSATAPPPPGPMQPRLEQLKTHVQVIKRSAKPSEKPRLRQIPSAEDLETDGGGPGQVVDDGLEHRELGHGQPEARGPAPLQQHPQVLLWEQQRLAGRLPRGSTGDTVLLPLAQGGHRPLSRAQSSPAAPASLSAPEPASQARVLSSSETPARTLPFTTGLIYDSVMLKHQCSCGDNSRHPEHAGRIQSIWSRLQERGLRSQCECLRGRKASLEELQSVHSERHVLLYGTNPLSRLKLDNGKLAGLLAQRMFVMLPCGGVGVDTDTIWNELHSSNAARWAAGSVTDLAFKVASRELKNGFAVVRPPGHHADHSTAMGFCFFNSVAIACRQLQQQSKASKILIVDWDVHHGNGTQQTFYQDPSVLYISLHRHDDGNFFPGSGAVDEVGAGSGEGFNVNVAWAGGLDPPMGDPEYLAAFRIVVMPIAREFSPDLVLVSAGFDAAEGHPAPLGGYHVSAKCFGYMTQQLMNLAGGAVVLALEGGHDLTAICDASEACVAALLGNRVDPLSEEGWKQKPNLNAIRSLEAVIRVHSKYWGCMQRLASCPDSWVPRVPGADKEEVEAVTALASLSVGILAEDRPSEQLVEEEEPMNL
Kind of assay: Nur77 reporter assay in HeLa cells. The class given is cell-based. The conditions noted are these: relative to CS055 at 3 μM. The protocol:
as §3

The next assay relates to HDAC4/5. Kind of assay: MEF2 reporter assay in HeLa cells. The conditions noted are these: relative to CS055 at 3 μM. The class given is cell-based, human. The protocol: as §3

The structures appear in SMILES notation.

T1 sequence (O15379 whole entry): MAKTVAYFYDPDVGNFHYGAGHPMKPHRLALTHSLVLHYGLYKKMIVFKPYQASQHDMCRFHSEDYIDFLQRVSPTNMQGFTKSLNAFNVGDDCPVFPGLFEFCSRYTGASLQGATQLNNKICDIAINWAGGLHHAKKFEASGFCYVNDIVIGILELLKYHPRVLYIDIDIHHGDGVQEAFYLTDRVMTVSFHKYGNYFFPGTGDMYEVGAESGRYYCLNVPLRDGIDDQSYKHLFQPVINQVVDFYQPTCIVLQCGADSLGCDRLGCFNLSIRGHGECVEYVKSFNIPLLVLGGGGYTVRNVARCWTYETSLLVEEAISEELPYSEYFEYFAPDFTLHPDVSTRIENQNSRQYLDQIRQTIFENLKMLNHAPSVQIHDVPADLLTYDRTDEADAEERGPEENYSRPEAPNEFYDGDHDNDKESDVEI
T1 sequence (Q9Y618 whole entry partner): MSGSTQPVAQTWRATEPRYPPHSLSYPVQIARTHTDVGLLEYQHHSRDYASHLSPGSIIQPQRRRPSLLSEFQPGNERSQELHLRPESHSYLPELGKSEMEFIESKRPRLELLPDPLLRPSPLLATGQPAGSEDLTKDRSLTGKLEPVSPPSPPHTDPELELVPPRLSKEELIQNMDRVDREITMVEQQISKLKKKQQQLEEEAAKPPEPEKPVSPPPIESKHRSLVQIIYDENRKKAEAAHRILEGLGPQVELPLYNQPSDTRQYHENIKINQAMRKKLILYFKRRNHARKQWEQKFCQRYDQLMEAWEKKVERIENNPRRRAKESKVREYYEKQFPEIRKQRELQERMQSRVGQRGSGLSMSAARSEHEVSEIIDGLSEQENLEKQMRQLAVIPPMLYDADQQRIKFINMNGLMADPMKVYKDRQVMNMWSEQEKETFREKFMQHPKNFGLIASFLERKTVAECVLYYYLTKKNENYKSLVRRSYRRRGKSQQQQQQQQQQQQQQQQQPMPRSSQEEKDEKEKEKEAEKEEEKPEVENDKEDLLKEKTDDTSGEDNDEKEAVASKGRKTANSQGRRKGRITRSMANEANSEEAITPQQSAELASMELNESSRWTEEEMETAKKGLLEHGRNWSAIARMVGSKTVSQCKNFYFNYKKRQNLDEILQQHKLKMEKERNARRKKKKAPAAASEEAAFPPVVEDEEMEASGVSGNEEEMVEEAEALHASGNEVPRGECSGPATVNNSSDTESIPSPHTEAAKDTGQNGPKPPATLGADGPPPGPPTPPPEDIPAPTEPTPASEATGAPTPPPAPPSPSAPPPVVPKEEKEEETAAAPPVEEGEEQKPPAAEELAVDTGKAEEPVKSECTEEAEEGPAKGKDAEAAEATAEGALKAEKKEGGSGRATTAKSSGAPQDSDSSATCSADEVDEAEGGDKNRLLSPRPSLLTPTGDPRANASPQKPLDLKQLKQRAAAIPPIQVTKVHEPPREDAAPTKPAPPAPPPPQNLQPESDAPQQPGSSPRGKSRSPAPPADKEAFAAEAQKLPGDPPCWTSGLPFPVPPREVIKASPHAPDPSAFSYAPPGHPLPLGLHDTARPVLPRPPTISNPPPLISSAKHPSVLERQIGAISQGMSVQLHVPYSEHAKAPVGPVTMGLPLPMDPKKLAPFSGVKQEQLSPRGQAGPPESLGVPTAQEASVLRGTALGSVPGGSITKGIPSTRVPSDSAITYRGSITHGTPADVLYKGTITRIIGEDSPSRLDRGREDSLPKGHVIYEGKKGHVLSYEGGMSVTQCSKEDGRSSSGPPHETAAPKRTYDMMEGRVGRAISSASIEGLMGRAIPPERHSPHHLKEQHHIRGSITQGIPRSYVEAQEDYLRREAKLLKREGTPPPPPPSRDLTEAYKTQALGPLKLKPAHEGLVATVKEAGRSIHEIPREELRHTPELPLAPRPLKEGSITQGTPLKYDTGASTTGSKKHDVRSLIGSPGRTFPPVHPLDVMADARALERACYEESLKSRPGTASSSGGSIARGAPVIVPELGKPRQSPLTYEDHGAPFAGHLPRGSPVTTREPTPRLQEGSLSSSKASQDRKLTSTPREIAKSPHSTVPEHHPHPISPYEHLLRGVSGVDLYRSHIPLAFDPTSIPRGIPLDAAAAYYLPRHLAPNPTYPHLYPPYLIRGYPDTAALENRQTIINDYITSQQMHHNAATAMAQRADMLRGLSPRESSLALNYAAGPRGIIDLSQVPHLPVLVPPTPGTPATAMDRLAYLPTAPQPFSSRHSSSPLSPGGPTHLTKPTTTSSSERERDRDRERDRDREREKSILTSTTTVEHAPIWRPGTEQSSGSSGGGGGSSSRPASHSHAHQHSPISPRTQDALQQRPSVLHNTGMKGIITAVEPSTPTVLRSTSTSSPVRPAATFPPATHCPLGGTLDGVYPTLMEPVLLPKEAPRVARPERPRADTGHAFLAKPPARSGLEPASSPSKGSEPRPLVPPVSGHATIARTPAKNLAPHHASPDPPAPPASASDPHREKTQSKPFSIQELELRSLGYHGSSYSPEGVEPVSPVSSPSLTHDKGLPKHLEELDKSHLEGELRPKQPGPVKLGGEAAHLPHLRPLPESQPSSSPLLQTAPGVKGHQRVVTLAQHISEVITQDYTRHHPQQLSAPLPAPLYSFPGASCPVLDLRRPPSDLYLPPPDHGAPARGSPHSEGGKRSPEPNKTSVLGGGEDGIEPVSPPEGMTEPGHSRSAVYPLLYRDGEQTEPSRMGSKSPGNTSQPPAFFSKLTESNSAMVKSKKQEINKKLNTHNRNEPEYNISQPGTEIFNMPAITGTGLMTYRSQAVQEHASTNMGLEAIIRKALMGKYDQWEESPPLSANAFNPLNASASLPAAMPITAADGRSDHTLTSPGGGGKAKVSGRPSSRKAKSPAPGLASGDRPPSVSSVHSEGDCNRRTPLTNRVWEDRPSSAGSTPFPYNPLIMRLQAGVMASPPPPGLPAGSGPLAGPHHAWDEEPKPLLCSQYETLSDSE

Turning to `CNC(=O)c1cc(Oc2ccc(NC(=O)Nc3ccc(Cl)c(C(F)(F)F)c3)cc2)ccn1` [Sorafinib, reference compound], the GI50 in the assay with Ramos was 1.51 µM; in the assay with Bel-7402 it was 9.73 µM; in the assay on U937 it was 4.06 µM; in the assay on A549 it was 13.8 µM; with Jurkat, 16.9 µM; with MCF7, 9.51 µM. For the same compound, the GI50 in the assay on Raji turned out to be 4.15 µM; with Hut-78, 12.5 µM; in the assay on HeLa it was 30.8 µM; in the assay on HCT-8, 5.35 µM; with MDA-MB-231 it was 4.25 µM; in the assay with HL60, 1.28 µM.
As to `O=C(CCCCCCC(=O)Nc1ccccc1)NO` [SAHA, suberoylanilide hydroxamic acid, reference compound], the “HDAC3 (GDF11 reporter assay) % Max Resp of CS055 at 3 μM” value on HDAC3 worked out at 317.9%. In addition, the “Class I HDAC (P21 reporter assay) % Max Resp of CS055 at 3 μM” value with Class I HDAC worked out at 304.1%. Also, the “HDAC7 (Nur77 reporter assay) % Max Resp of CS055 at 3 μM” value at HDAC7 came to 514.9%. In addition, the “HDAC4/5 (MEF2 reporter assay) % Max Resp of CS055 at 3 μM” value in the assay with HDAC4/5 stood at 427.3%.
Consider `CCN(CC)CCNC(=O)c1c(C)[nH]c(/C=C2\C(=O)Nc3ccc(F)cc32)c1C` [Sutent, reference compound], for which the GI50 with Ramos was 12 µM; in the assay with Bel-7402, 13.1 µM; in the assay with U937, 8.28 µM; in the assay with A549 it was 14.7 µM; with Jurkat, 7.05 µM; in the assay with MCF7, 7.55 µM. Also, the GI50 with Raji came out at 5.47 µM; in the assay with Hut-78 it was 4.06 µM; with HeLa, 9.29 µM; in the assay on HCT-8, 12.2 µM; in the assay with MDA-MB-231 it was 4.66 µM; in the assay on HL60, 1.73 µM.
